Laboratory results taken from patent publication US5223526A, “Pyrazole carboxanilide fungicides and use” (Monsanto Company, priority 1992, dated 1993).

How the values were obtained:
[1] = system: Botrytis cinerea; assay: Eggplant grey mold; assay type: in vivo; parameters: scale not given here; conditions: inoculated 24 h later, rated after 3-4 days; for Disease Control Rating at 20 ppm: eggplant sprayed with 20 ppm; for Disease Control Rating at 100 ppm: eggplant sprayed with 100 ppm; for Disease Control Rating at 500 ppm: eggplant sprayed with 500 ppm
Summary of the method: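 Protective test: compound formulations (2:3 acetone:water, 0.5% Tween 20; 500, 100 or 20 ppm) sprayed on 14-18-day-old plants, with spore inoculum (4×10^6 spore/mL) applied a day later. Disease control rated on Botrytis lesions after 3-4 days at 23 °C and 100% humidity.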

[2] = target: T1, succinate dehydrogenase (Botrytis cinerea, UniProt A0A384J5E4+A0A384J8V8+A0A384JHJ5); assay: Enzyme inhibition: succinate dehydrogenase activity in Botrytis cinerea mitochondria (DCPIP reduction); assay type: biochemical; conditions: concentration required to inhibit the rate of DCPIP reduction by 50%; Botrytis cinerea isolate Nick mitochondria; read-out: I50 (μM conc.)
T1 construct: succinate-DCPIP reductase assay with KCN
T1 sequence (A0A384J5E4 1-300): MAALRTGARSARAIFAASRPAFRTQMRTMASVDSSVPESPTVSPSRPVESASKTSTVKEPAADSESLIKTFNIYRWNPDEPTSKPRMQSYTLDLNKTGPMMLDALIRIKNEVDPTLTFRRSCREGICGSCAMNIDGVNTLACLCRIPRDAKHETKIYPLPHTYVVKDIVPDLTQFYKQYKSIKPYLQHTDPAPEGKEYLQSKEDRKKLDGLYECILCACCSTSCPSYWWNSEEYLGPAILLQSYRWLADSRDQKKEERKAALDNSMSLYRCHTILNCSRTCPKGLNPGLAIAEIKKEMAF
T1 sequence (A0A384J8V8 1-189): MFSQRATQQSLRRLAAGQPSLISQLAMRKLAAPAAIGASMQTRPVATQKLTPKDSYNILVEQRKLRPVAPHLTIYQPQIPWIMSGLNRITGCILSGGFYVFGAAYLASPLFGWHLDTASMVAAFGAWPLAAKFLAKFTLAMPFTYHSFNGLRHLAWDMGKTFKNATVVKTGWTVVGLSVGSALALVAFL
T1 sequence (A0A384JHJ5 1-192): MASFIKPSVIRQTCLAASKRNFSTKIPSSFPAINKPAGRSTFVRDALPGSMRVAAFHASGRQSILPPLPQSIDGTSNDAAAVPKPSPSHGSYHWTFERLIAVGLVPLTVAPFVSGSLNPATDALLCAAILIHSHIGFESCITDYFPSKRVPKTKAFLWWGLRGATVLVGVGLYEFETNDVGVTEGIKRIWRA
T1 sequence (A0A384K456 1-647 partner): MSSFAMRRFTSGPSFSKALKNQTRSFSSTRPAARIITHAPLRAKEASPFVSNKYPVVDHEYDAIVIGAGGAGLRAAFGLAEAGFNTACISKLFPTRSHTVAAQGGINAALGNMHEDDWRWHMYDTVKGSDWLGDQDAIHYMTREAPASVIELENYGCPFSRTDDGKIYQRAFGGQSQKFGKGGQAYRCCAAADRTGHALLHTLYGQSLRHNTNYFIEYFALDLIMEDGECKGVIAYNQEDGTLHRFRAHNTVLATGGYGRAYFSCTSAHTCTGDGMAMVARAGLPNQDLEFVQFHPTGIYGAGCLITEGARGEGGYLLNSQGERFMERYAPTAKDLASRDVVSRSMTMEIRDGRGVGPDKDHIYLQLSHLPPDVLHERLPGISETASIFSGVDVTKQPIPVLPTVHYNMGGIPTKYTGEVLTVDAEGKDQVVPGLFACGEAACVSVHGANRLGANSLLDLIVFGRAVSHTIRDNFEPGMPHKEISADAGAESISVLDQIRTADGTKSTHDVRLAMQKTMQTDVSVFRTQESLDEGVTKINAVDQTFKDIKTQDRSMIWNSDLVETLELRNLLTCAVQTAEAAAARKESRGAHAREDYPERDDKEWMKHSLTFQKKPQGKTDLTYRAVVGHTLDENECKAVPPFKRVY
Summary of the method: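 DCPIP (45 μM) reduction at 600 nm tracked with 17 mM succinate, 1 mM KCN and 50 mM potassium phosphate, pH 7.2. Compounds were added in acetone (final 1% v/v), and Botrytis cinerea isolate Nick mitochondrial fraction initiated the reaction. Rates minus endogenous activity gave percentage inhibition, plotted semilog against concentration to derive I50 (μM).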

[3] = system: Rhizoctonia solani; assay: Rice sheath blight; assay type: in vivo; parameters: scale not given here; conditions: inoculated two days later, rated after 7 days, average of five plants; for Disease Control Rating at 0.02 mg/mL: foliage and soil sprayed with 0.02 mg/mL; for Disease Control Rating at 0.1 mg/mL: foliage and soil sprayed with 0.1 mg/mL; for Disease Control Rating at 0.5 mg/mL: foliage and soil sprayed with 0.5 mg/mL
Summary of the method: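 Preventive test: R. solani inoculum on rice grain was applied at the plant base two days after spraying foliage and soil with Compound A (0.5, 0.1 or 0.02 mg/mL, water/acetone/Tween 20). Plants aged 11–15 days stood in flood trays; after 7 days at 25 °C and high humidity, disease control was rated against untreated plants, five plants averaged.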

[4] = system: Botrytis cinerea; assay: Vine grey mold (grape berries); assay type: in vivo; conditions: average of six berries, 7-10 days; for pest or weed control at 50 ppm: grape berries treated with 50 ppm, read-out: % DISEASE CONTROL 50 ppm; for pest or weed control at 200 ppm: grape berries treated with 200 ppm, read-out: % DISEASE CONTROL 200 ppm
Summary of the method: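 Preventive berry test: compound at 50 or 200 ppm (acetone/water, 0.05% Tween 20) applied one day before inoculation with 10^6 spores/mL Botrytis conidia. After 7-10 days at 20 °C under 12 h light, infected surface area rated; disease control expressed as percent reduction from control mean; repeated-test values averaged.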

SMILES	Disease Control Rating at 20 ppm [1]	Disease Control Rating at 100 ppm [1]	Disease Control Rating at 500 ppm [1]	IC50 [2]	Disease Control Rating at 0.02 mg/mL [3]	Disease Control Rating at 0.1 mg/mL [3]	Disease Control Rating at 0.5 mg/mL [3]	pest or weed control at 50 ppm [4]	pest or weed control at 200 ppm [4]
Cn1cc(C(=O)Nc2ccccc2C2(C)CCCC2)c(C(F)F)n1 [Example 83, 1H-pyrazole-4-carboxamide, 3-(difluoromethyl)-1-methyl-N-[2-(1-methylcyclopentyl)phenyl]-]	0	0	2	0.13 µM	3	3	3	56%	55%
Cc1ccc(C2CCCCC2)c(NC(=O)c2cn(C)nc2C(F)F)c1 [Example 21, 1H-pyrazole-4-carboxamide, N-(2-cyclohexyl-5-methylphenyl)-3-(difluoromethyl)-1-methyl-]	1	2	2	0.019 µM	–	–	1	40%	34%
Cn1nc(C(F)(F)F)c(C(=O)Nc2ccccc2C2CCCCC2)c1Cl [Example 87, 1H-pyrazole-4-carboxamide, 5-chloro-N-(2-cyclohexylphenyl)-1-methyl-3-(trifluoromethyl)-]	–	–	0	0.059 µM	–	–	2	61%	46%
Cn1cc(C(=O)Nc2ccccc2C2=CCOCC2)c(C(F)(F)F)n1 [Example 108, 1H-pyrazole-4-carboxamide, N-[2-(5,6-dihydro-2H-pyran-4-yl)phenyl]-1-methyl-3-(trifluoromethyl)-]	–	–	0	1.6 µM	–	–	0	12%	0%
Cn1cc(C(=O)Nc2ccccc2C2CCCC2)c(C(F)(F)Cl)n1 [Example 90, 1H-pyrazole-4-carboxamide, 3-(chlorodifluoromethyl)-N-(2-cyclopentylphenyl)-1-methyl-]	0	0	0	0.79 µM	–	–	0	0%	33%
Cc1c(C(=O)Nc2ccccc2C2CCCCCC2)c(Cl)nn1C [Example 105, 1H-py-razole-4-carboxamide, 3-chloro-N-(2-cycloheptylphenyl)-1,5-dimethyl-]	0	0	1	0.26 µM	–	–	0	6%	0%
Cc1nn(C)cc1C(=O)Nc1ccccc1C1CCCC1 [Example 6, 1H-pyrazole-4-carboxamide, N-(2-cyclopentylphenyl)-1,3-dimethyl-]	–	–	1	0.25 µM	0	0	1	0%	20%
Cn1cc(C(=O)Nc2ccccc2OCCC2CCCC2)c(C(F)F)n1 [Example 54, 1H-pyrazole-4-carboxamide, N-[2-(2-cyclopentylethoxy)phenyl]-3-(difluoromethyl)-1-methyl-]	–	–	0	0.011 µM	–	–	2	2%	2%
Cn1cc(C(=O)Nc2ccccc2C2CCCCCC2)c(C(F)(F)F)n1 [Example 10, 1H-pyrazole-4-carboxamide, N-(2-cycloheptylphenyl)-1-methyl-3-(trifluoromethyl)-]	2	2	2	0.003 µM	2	3	3	87%	85%
Cn1cc(C(=O)Nc2ccccc2C2CCCCCCC2)c(C(F)F)n1 [Example 24, 1H-pyrazole-4-carboxamide, N-(2-cyclooctylphenyl)-3-(difluoromethyl)-1-methyl-]	1	2	2	0.0012 µM	3	3	3	87%	100%
Cn1cc(C(=O)Nc2ccccc2O[C@H]2CC[C@H](C)CC2)c(C(F)(F)F)n1 [Example 73, 1H-pyrazole-4-carboxamide, 1-methyl-N-[2-[(4-methylcyclohexyl)oxy]phenyl]-3-(trifluoromethyl)-, trans-]	–	–	0	0.0076 µM	–	–	2	8%	0%
Cn1cc(C(=O)Nc2ccccc2C2CCCCCC2)c(C(F)F)n1 [Example 9, 1H-pyrazole-4-carboxamide, N-(2-cycloheptylphenyl)-3-(difluoromethyl)-1-methyl-]	0	2	2	0.0019 µM	3	3	3	94%	89%
O=C(Nc1ccccc1C1CCCCC1)c1cn(C(F)F)nc1C(F)F [Example 61, 1H-pyrazole-4-carboxamide, N-(2-cyclohexylphenyl)-1,3-bis(difluoromethyl)-]	–	–	1	0.19 µM	–	–	0	0%	0%
Cn1cc(C(=O)Nc2ccccc2OC2CCCCC2)c(C(F)(F)F)n1 [Example 23, 1H-pyrazole-4-carboxamide, N-[2-(cyclohexyloxy)phenyl]-1-methyl-3-(trifluoromethyl)-]	–	–	0	0.01 µM	1	2	3	20%	66%
Cc1ccc(NC(=O)c2cn(C)nc2C(F)F)c(C2CCCCC2)c1 [Example 28, 1H-pyrazole-4-carboxamide, N-(2-cyclohexyl-4-methylphenyl)-3-(difluoromethyl)-1-methyl-]	0	1	2	0.01 µM	–	–	0	37%	77%
